Experiments:
field violet [1] = experiment: Test E field violet; assay type: in vivo, Viola arvensis; details: Postemergence
Description: (§1) Compounds evaluated in this test were formulated in a non-phytotoxic solvent mixture which included a surfactant and applied to plants that were in the 1- to 4-leaf stage (postemergence application). A mixture of sandy loam soil and greenhouse potting mix in a 60:40 ratio was used for the postemergence test.
(§2) Plantings of these crops and weed species were adjusted to produce plants of appropriate size for the postemergence test. All plant species were grown using normal greenhouse practices. Crop and weed species include annual bluegrass (Poa annua), blackgrass (Alopecurus myosuroides), black nightshade (Solanum nigra), chickweed (Stellaria media), common poppy (Papaver rhoeas), deadnettle (Lamium amplexicaule), downy brome (Bromus tectorum), field violet (Viola arvensis), galium (Galium aparine), green foxtail (Setaria viridis), Italian ryegrass (Lolium multiflorum), jointed goatgrass (Aegilops cylindrica), kochia (Kochia scoparia), lambsquarters (Chenopodium album), littleseed canarygrass (Phalaris minor), rape (Brassica napus), redroot pigweed (Amaranthus retroflexus), Russian thistle (Salsola kali), scentless chamomile (Matricaria inodora), spring barley (Hordeum vulgare), sugar beet (Beta vulgaris), sunflower (Helianthus annuus), ivyleaf speedwell (Veronica hederaefolia), spring wheat (Triticum aestivum), winter wheat (Triticum aestivum), wild buckwheat (Polygonum convolvulus), wild mustard (Sinapis arvensis), wild oat (Avena fatua), windgrass (Apera spica-venti) and winter barley (Hordeum vulgare).
(§3) Treated plants and untreated controls were maintained in a greenhouse for approximately 21 to 28 days, after which all treated plants were compared to untreated controls and visually evaluated. […] A dash response (-) means no test result.

chickweed [2] = experiment: Test E chickweed; assay type: in vivo, Stellaria media; details: Postemergence
Description: as §1, §2, §3

deadnettle = experiment: Test E deadnettle; assay type: in vivo, Lamium amplexicaule; details: Preemergence
redroot pigweed = experiment: Test E redroot pigweed; assay type: in vivo, Amaranthus retroflexus; details: Postemergence
Description: as §1, §2, §3

sunflower = experiment: Test E sunflower; assay type: in vivo, Helianthus annuus; details: Postemergence
Method in brief: (§4)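 Plants were grown under normal greenhouse practice; for postemergence, in sandy loam soil mixed 60:40 with potting mix, treated at the 1- to 4-leaf stage. The compound was in a non-phytotoxic solvent carrying a surfactant. After roughly 21 to 28 days plants were scored visually against untreated plants.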

common poppy [3] = experiment: Test E common poppy; assay type: in vivo, Papaver rhoeas; details: Postemergence; for Plant response rating, Comnion poppy: Rate 125 g/ha
Method in brief: as §4

downy brome [4] = experiment: Test E downy brome; assay type: in vivo, Bromus tectorum; details: Preemergence
chickweed [5] = experiment: Test E chickweed; assay type: in vivo, Stellaria media; details: Preemergence
field violet [6] = experiment: Test E field violet; assay type: in vivo, Viola arvensis; details: Preemergence
downy brome [7] = experiment: Test E downy brome; assay type: in vivo, Bromus tectorum; details: Postemergence; for Plant response rating, Downy brome: 0 to 100 scale
Description: as §1, §2, §3

rape = experiment: Test E rape; assay type: in vivo, Brassica napus; details: Preemergence
common poppy [8] = experiment: Test E common poppy; assay type: in vivo, Papaver rhoeas; details: Preemergence
maize hybrid P33G26 = experiment: Test G maize injury with safener-treated seed; details: 28 days after application
Method in brief: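 Maize hybrid P33G26 seed, treated with dichlormid, fenchlorazole-ethyl or naphthalic anhydride or left untreated, was sown in soil pots, then sprayed pre-emergence with several compound rates at 310 L/ha. Plants grew in a greenhouse (14 h day, about 27/24 °C day/night), with 4–5 replicates. Injury was scored visually against untreated controls 28 days after application.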

sourgrass = experiment: Test D sourgrass; assay type: in vivo, Trichachne insularis; details: Postemergence, 0 to 100 scale
windgrass = experiment: Test E windgrass; assay type: in vivo, Apera spica-venti; details: Postemergence
Method in brief: as §4

Green foxtail [9] = experiment: Test D green foxtail; assay type: in vivo; details: Postemergence, 0 to 100 scale, 0 no injury, 100 complete control
Green foxtail [10] = experiment: Test D green foxtail; assay type: in vivo; details: Postemergence, 0 to 100 scale
Green foxtail [11] = experiment: Test D green foxtail; assay type: in vivo; details: Postemergence, 0 to 100 scale, 0 no injury, 100 complete control; remark: listed apart in the source
Green foxtail [12] = experiment: Test D green foxtail; assay type: in vivo; details: Postemergence, 0 to 100 scale; remark: listed apart in the source
[13] = Rate 250 g/ha, 0 to 100 scale (0 no effect, 100 complete control)
[14] = Rate 500 g/ha, 0 to 100 scale, 0 no effect, 100 complete control
[15] = Rate 125 g/ha, 0 to 100 scale (0 no effect, 100 complete control)
[16] = Rate 500 g/ha, 0 to 100 scale where 0 is no effect and 100 is complete control
[17] = Rate 500 g/ha, 0 no effect, 100 complete control
[18] = Rate 250 g/ha, 0 to 100 scale where 0 is no effect and 100 is complete control
[19] = Rate 125 g/ha, 0 no injury, 100 complete control

CC(C)N(C(=O)n1oc(=O)n(C(C)C)c1=O)c1ccc(F)cc1F [Compound 109]
Plant response rating, Field violet (field violet [1]; Rate 125 g/ha, 0 to 100 scale): 10 | Plant response rating, Field violet (field violet [1]; [13]): 20 | Plant response rating, Field violet (field violet [1]; [14]): 40 | Plant response rating, Chickweed (chickweed [2]; Rate 125 g/ha, 0 to 100 scale): 0 | Plant response rating, Chickweed (chickweed [2]; [13]): 0 | Plant response rating, Chickweed (chickweed [2]; [14]): 10 | Plant response rating, Deadnettle (deadnettle; [15]): 20 | Plant response rating, Deadnettle (deadnettle; Rate 250 g/ha, 0 to 100 scale): 30 | Plant response rating, Deadnettle (deadnettle; [16]): 30 | Plant response rating, Redroot pigweed (redroot pigweed; Rate 125 g/ha, 0 to 100 scale): 20 | Plant response rating, Redroot pigweed (redroot pigweed; [13]): 15 | Plant response rating, Redroot pigweed (redroot pigweed; [14]): 15 | Plant response rating, Sunflower (sunflower; Rate 125 g/ha, 0 to 100 scale): 30 | Plant response rating, Sunflower (sunflower; [13]): 30 | Plant response rating, Sunflower (sunflower; [14]): 40 | Plant response rating, Comnion poppy (common poppy [3]; 0 to 100 scale): 30 | Plant response rating, Common poppy (common poppy [3]; [13]): 10 | Plant response rating, Common poppy (common poppy [3]; [14]): 10 | Plant response rating, Downy brome (downy brome [4]; [15]): 0 | Plant response rating, Downy brome (downy brome [4]; Rate 250 g/ha, 0 to 100 scale): 80 | Plant response rating, Downy brome (downy brome [4]; [16]): 60 | Plant response rating, Chickweed (chickweed [5]; [15]): 40 | Plant response rating, Chickweed (chickweed [5]; [16]): 100 | Plant response rating, Field violet (field violet [6]; [15]): 50 | Plant response rating, Field violet (field violet [6]; Rate 250 g/ha, 0 to 100 scale): 15 | Plant response rating, Field violet (field violet [6]; [16]): 20 | Plant response rating, Downy brome (downy brome [7]; Rate 125 g/ha): 0 | Plant response rating, Downy brortie (downy brome [7]; [13]): 0 | Plant response rating, Downy brome (downy brome [7]; [17]): 0 | Plant response rating, Rape (rape; [15]): 10 | Plant response rating, Rape (rape; Rate 250 g/ha, 0 to 100 scale): 55 | Plant response rating, Rape (rape; [16]): 65

C=CCn1c(=O)on(C(=O)N(c2ccc(F)cc2)C(C)C)c1=O [Compound 146]
Plant response rating, Common poppy (common poppy [8]; [15]): 100 | Common poppy plant response rating (0 to 100 scale) (common poppy [8]; Rate 250 g/ha): 100 | Plant response rating, Common poppy (common poppy [8]; [16]): 100 | Mean plant response rating, maize (maize hybrid P33G26; Safener Dichlormid (seed treatment), Rate 140 g ai/ha): 1 percent control | Mean plant response rating, maize (maize hybrid P33G26; Safener Dichlormid (seed treatment), Rate 280 g ai/ha): 1 percent control | Mean plant response rating, maize (maize hybrid P33G26; Safener Dichlormid (seed treatment), Rate 560 g ai/ha): 4 percent control | Mean plant response rating, maize (maize hybrid P33G26; Safener Dichlormid (seed treatment), Rate 1120 g ai/ha): 4 percent control | Mean plant response rating, maize (maize hybrid P33G26; Safener Fenchlorazole-ethyl (seed treatment), Rate 140 g ai/ha): 3 percent control | Mean plant response rating, maize (maize hybrid P33G26; Safener Fenchlorazole-ethyl (seed treatment), Rate 280 g ai/ha): 74 percent control | Mean plant response rating, maize (maize hybrid P33G26; Safener Fenchlorazole-ethyl (seed treatment), Rate 560 g ai/ha): 78 percent control | Mean plant response rating, maize (maize hybrid P33G26; Safener Fenchlorazole-ethyl (seed treatment), Rate 1120 g ai/ha): 85 percent control | Mean plant response rating, maize (maize hybrid P33G26; Safener None, Rate 140 g ai/ha): 49 percent control | Mean plant response rating, maize (maize hybrid P33G26; Safener None, Rate 280 g ai/ha): 73 percent control | Mean plant response rating, maize (maize hybrid P33G26; Safener None, Rate 560 g ai/ha): 80 percent control | Mean plant response rating, maize (maize hybrid P33G26; Safener None, Rate 1120 g ai/ha): 85 percent control | Mean plant response rating, maize (maize hybrid P33G26; Safener naphthalic anhydride (seed treatment), Rate 140 g ai/ha): 0 percent control | Mean plant response rating, maize (maize hybrid P33G26; Safener naphthalic anhydride (seed treatment), Rate 1120 g ai/ha): 35 percent control | Plant response rating, Field violet (field violet [1]; Rate 62 g/ha, 0 to 100 scale): 50 | Plant response rating, Field violet (field violet [1]; Rate 125 g/ha, 0 to 100 scale): 0 | Plant response rating, Field violet (field violet [1]; [14]): 10 | Field violet plant response rating (field violet [1]; [18]): 0 | Plant response rating, Chickweed (chickweed [2]; Rate 62 g/ha, 0 to 100 scale): 30 | Plant response rating, Chickweed (chickweed [2]; Rate 125 g/ha, 0 to 100 scale): 0 | Plant response rating, Chickweed (chickweed [2]; [14]): 30 | Chickweed plant response rating (chickweed [2]; [18]): 0 | Sourgrass plant response rating (sourgrass; Rate 64 g/ha, 0 no injury, 100 complete control): 50 | Plant response rating, Sourgrass (sourgrass; [19]): 50 | Sourgrass plant response rating (sourgrass; [19]): 30 | Plant response rating, Sourgrass (sourgrass; Rate 250 g/ha): 80 | Plant response rating, Sourgrass (sourgrass; Rate 500 g/ha): 80 | Plant response rating, Windgrass (windgrass; Rate 62 g/ha, 0 to 100 scale): 85 | Windgrass plant response rating (windgrass; [18]): 95 | Plant response rating, Deadnettle (deadnettle; [15]): 40 | Deadnettle plant response rating (0 to 100 scale) (deadnettle; Rate 250 g/ha): 40 | Plant response rating, Deadnettle (deadnettle; [16]): 50 | Plant response rating, Redroot pigweed (redroot pigweed; Rate 62 g/ha, 0 to 100 scale): 30 | Plant response rating, Redroot pigweed (redroot pigweed; Rate 125 g/ha, 0 to 100 scale): 20 | Plant response rating, Redroot pigweed (redroot pigweed; [14]): 50 | Redroot pigweed plant response rating (redroot pigweed; [18]): 10 | Plant response rating, Sunflower (sunflower; Rate 62 g/ha, 0 to 100 scale): 0 | Plant response rating, Sunflower (sunflower; Rate 125 g/ha, 0 to 100 scale): 40 | Plant response rating, Sunflower (sunflower; [14]): 50 | Sunflower plant response rating (sunflower; [18]): 40 | Plant response rating, Common poppy (common poppy [3]; Rate 62 g/ha, 0 to 100 scale): 60 | Plant response rating, Comnion poppy (common poppy [3]; 0 to 100 scale): 10 | Plant response rating, Common poppy (common poppy [3]; [14]): 10 | Common poppy plant response rating (common poppy [3]; [18]): 0 | Plant response rating, Downy brome (downy brome [4]; [15]): 60 | Downy brome plant response rating (0 to 100 scale) (downy brome [4]; Rate 250 g/ha): 0 | Plant response rating, Downy brome (downy brome [4]; [16]): 60 | Plant response rating, Chickweed (chickweed [5]; [15]): 30 | Chickweed plant response rating (0 to 100 scale) (chickweed [5]; Rate 250 g/ha): 80 | Plant response rating, Chickweed (chickweed [5]; [16]): 70 | Plant response rating, Field violet (field violet [6]; [15]): 10 | Field violet plant response rating (0 to 100 scale) (field violet [6]; Rate 250 g/ha): 30 | Plant response rating, Field violet (field violet [6]; [16]): 50 | Plant response rating, Downy brome (downy brome [7]; Rate 62 g/ha): 55 | Plant response rating, Downy brome (downy brome [7]; Rate 125 g/ha): 10 | Plant response rating, Downy brome (downy brome [7]; [17]): 5 | Downy brome plant response rating (downy brome [7]; [18]): 0 | Plant response rating, Rape (rape; [15]): 60 | Rape plant response rating (0 to 100 scale) (rape; Rate 250 g/ha): 80 | Plant response rating, Rape (rape; [16]): 60

CC(C)N(C(=O)n1oc(=O)n(C2CC2)c1=O)c1ccc(F)cc1F [Compound 299]
Green foxtail plant response rating (Green foxtail [9]; Rate 64 g/ha): 100 | Green foxtail plant response rating (Green foxtail [9]; Rate 125 g/ha): 100 | Plant response rating, Green foxtail (Green foxtail [10]; Rate 250 g/ha): 100 | Plant response rating, Green foxtail (Green foxtail [10]; Rate 500 g/ha): 100 | Plant response rating, Green foxtail (Green foxtail [11]; Rate 64 g/ha): 100 | Plant response rating, Green foxtail (Green foxtail [11]; Rate 125 g/ha): 100 | Plant response rating, Green foxtail (Green foxtail [12]; Rate 250 g/ha): 100 | Plant response rating, Green foxtail (Green foxtail [12]; Rate 500 g/ha): 100
